Experimental data as given in patent publication US10206937B2, “Boronic acid derivatives and therapeutic uses thereof” (Qpex Biopharma, Inc., priority 2014, dated 2019).
Read-outs that look alike come from different tables or passages of the source.

Experiments:
OXA-48 = OXA-48 (Klebsiella pneumoniae, UniProt Q6XEC0); assay: Inhibition of purified class D carbapenemase OXA-48 (Ki, carbapenem substrates); type: biochemical
NDM-1 [1] = biological target: T1, NDM-1 (Klebsiella pneumoniae, UniProt C7C422); assay: Inhibition of purified class B carbapenemase NDM-1 (Ki, imipenem substrate); type: biochemical; settings: NDM-1, substrate imipenem; read-out: Ki NDM-1, Imipenem
NDM-1 [2] = biological target: T1, NDM-1; assay: biochemical
VIM-1 = biological target: T2, VIM-1 (Pseudomonas aeruginosa, UniProt A0A0F7KYQ8); assay: biochemical; settings: cleavage of nitrocefin (200 uM) by VIM-1 supernatant
T2 construct: made in house; host or cells: ECM6711 strain carrying pUCP24-VIM-1 plasmid; culture supernatant used unpurified

[3] = biological target: T3, purified class A, C and D enzymes (UniProt P0AD64, L31Q/G234S/E235K, species not given); type: biochemical; settings: read-out: Ki (SHV-12, NCF); purified SHV-12; nitrocefin reporter substrate
T3 construct: Ki (SHV-12, NCF); other: purified SHV-12; nitrocefin reporter substrate
T3 sequence (P0AD64 1-286 L31Q/G234S/E235K): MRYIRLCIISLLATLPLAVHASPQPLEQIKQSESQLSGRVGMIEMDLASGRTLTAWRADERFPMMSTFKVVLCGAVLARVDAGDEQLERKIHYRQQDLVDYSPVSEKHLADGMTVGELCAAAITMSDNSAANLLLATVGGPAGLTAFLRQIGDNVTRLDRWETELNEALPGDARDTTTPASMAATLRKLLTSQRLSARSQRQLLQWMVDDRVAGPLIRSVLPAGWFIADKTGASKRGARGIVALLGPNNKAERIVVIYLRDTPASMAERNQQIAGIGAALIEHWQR

[4] = biological target: purified class A, C and D enzymes (Enterobacter cloacae, UniProt P05364); type: biochemical; settings: purified P99/AmpC of ECL; nitrocefin reporter substrate
[5] = biological target: T4, purified class A, C and D enzymes (UniProt Q9F663); type: biochemical; settings: read-out: Ki (KPC-2, NCF); purified KPC-2; nitrocefin reporter substrate
T4 construct: rows headed: Ki (KPC-2, NCF); other: purified KPC-2; nitrocefin reporter substrate

[6] = biological target: purified class A, C and D enzymes (Escherichia coli, UniProt Q9L5C7); type: biochemical; settings: purified CTX-M-14; nitrocefin reporter substrate
[7] = biological target: T5, purified class A, C and D enzymes (UniProt Q6XEC0); type: biochemical; settings: read-out: Ki (OXA-48, NCF); purified OXA-48; nitrocefin reporter substrate
T5 construct: rows headed: Ki (OXA-48, NCF); other: purified OXA-48; nitrocefin reporter substrate

KPC-2 = KPC-2 (Klebsiella pneumoniae, UniProt Q9F663); assay: Inhibition of purified class A carbapenemase KPC-2 (Ki, carbapenem substrates); type: biochemical
[8] = tested on: strains of Enterobacteriaceae producing various carbapenemases (class A, D and B; 104 strains); assay: Antibiotics potentiation by Compound 27 (MIC; meropenem, doripenem, ertapenem, cefepime); type: cell-based; settings: Compound 27 at a fixed concentration of 4 μg/ml
[9] = Serum stability of prodrugs: hydrolysis by human serum; type: in vitro ADME; settings: prodrug; for Measured Initial Conc. in Serum: 37 degrees, sampled immediately
Description: (§1) Prodrug strategy is one of the ways to achieve or increase oral bioavailability for therapeutic drugs. Compound 62 was used as a template for various ester prodrugs. After a prodrug molecule is absorbed into systemic circulation, it should be hydrolyzed in the blood in order to release the active form. Hydrolysis of several prodrugs by rat and human serum were evaluated.
(§2) For all stability experiments the test compounds were treated with rat or human serum in Eppendorf tubes. Typically, 980 μl of serum was prewarmed at 37 degrees for 2 minutes and then 20 μl of a compound (at 1 mg/ml, 50×) was added to it to get a final concentration of 20 μg/ml and immediately mixed. Duplicate samples were tested. […] After vortexing for 30 seconds, the tube was centrifuged in a microcentrifuge for 10 minutes at 15K rpm. Next, 100 μl of the supernatant was combined with 600 μl of water and injected on LC-MS using 0.1% formic acid in water for mobile phase A and 0.1% formic acid in methanol for mobile phase B on an ACE 5 C18 2.1×100 mm column with a 10 μL it injection. The flow rate and gradient were adjusted as needed to give the desired resolution and run time. The pH of the mobile phase was adjusted if needed to improve the chromatography.
(§3) The time course of both the disappearance of a prodrug and the appearance of the active form of that prodrug is presented in Table 13 and Table 14. The active metabolites for all of the listed prodrugs are corresponding parent drugs

[10] = Serum stability of prodrugs: hydrolysis by rat serum; type: in vitro ADME; settings: for Measured Initial Conc. in Serum / Conc. at t = 1 hr / Conc. at t = 3 hr: rat serum, prodrug; for Measured Initial Conc. in Serum: 37 degrees, sampled immediately
Description: as §1, §2, §3

[11] = tested on: strains of Enterobacteriaceae producing various carbapenemases (class A, D and B; 169 strains); assay: Meropenem or tebipenem potentiation by Compounds 97 or 62 (MIC); type: cell-based; settings: Compound 62 at a fixed concentration of 8 μg/ml
Description: The largest panel of clinical isolates expressing class A, D and B carbapenemases alone or in combination with other beta-lactamases (169 strains) was used to evaluate carbapenem potentiation activity of Compounds 97 and 62. MIC for meropenem and tebipenem of these strains were determined either alone or in the presence of Compounds 97 or 62, respectively, at a fixed concentration of 8 μg/ml in the growth media.

[12] = cleavage of biapenem by OXA-48, read-out: Ki, Biapenem
[13] = cleavage of doripenem by OXA-48, read-out: Ki, Doripenem
[14] = cleavage of imipenem by OXA-48, read-out: Ki, Imipenem
[15] = cleavage of meropenem by OXA-48, read-out: Ki, Meropenem
[16] = cleavage of tebipenem by OXA-48, read-out: Ki, Tebipenem
[17] = purified OXA-48, substrate biapenem, read-out: Ki OXA-48, Biapenem
[18] = cleavage of biapenem (100 uM) by NDM-1, read-out: Ki, Biapenem
[19] = cleavage of imipenem (100 uM) by NDM-1, read-out: Ki, Imipenem
[20] = cleavage of meropenem (100 uM) by NDM-1, read-out: Ki, Meropenem
[21] = cleavage of tebipenem (100 uM) by NDM-1, read-out: Ki, Tebipenem
[22] = cleavage of biapenem by KPC-2, read-out: Ki, Biapenem
[23] = cleavage of doripenem by KPC-2, read-out: Ki, Doripenem
[24] = cleavage of imipenem by KPC-2, read-out: Ki, Imipenem
[25] = cleavage of meropenem by KPC-2, read-out: Ki, Meropenem
[26] = cleavage of tebipenem by KPC-2, read-out: Ki, Tebipenem
[27] = purified KPC-2, substrate biapenem, read-out: Ki KPC-2, Biapenem

Sequence of OXA-48 (Q6XEC0 23-265, looked up): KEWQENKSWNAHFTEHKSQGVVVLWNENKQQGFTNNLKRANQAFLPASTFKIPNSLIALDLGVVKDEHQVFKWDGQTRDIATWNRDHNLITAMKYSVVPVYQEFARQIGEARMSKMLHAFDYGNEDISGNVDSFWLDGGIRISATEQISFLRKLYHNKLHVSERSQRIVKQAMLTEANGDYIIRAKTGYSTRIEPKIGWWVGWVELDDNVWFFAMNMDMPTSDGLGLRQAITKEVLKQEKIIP
Sequence of KPC-2 (Q9F663 25-293 limits assumed): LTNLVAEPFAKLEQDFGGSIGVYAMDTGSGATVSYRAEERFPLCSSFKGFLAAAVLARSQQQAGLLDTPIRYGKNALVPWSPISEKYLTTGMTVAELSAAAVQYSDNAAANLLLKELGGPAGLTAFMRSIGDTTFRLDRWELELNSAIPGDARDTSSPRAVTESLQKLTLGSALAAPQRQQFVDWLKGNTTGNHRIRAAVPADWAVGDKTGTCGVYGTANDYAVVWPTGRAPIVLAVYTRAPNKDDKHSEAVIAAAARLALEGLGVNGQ
Sequence of purified class A, C and D enzymes (Escherichia coli, UniProt Q9L5C7) (Q9L5C7 entry or part of it): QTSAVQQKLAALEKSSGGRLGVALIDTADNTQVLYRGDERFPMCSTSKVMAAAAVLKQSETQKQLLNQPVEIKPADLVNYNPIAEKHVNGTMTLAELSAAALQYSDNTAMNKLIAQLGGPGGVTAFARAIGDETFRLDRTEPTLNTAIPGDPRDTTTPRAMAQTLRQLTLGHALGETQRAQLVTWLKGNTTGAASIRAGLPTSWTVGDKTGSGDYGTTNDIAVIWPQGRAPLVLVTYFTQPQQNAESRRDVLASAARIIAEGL
Sequence of purified class A, C and D enzymes (Enterobacter cloacae, UniProt P05364) (P05364 21-381): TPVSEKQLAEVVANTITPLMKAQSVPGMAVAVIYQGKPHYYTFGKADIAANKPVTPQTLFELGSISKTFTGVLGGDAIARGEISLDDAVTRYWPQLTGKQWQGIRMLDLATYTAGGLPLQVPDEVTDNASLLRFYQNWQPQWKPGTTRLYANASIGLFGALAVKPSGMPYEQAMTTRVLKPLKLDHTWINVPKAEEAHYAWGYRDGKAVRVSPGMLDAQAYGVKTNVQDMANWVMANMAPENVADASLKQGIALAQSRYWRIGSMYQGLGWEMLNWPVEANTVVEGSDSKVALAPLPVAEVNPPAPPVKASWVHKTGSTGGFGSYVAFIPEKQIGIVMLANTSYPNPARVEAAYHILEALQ
T1 sequence (C7C422 29-270, looked up, species assumed): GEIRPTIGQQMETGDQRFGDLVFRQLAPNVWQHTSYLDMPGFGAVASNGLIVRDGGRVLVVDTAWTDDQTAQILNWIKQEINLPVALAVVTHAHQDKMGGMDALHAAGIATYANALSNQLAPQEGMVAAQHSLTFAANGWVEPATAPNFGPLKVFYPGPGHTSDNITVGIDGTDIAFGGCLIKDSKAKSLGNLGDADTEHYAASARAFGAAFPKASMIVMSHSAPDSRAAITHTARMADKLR

Compound	Ki (OXA-48; [12])	Ki (OXA-48; [13])	Ki (OXA-48; [14])	Ki (OXA-48; [15])	Ki (NDM-1 [1])	Ki (NDM-1 [2]; [19])	IC50 (VIM-1)	Ki [3]	Ki [5]	Ki [7]	Ki (KPC-2; [22])	Ki (KPC-2; [23])	Ki (KPC-2; [24])	Ki (KPC-2; [25])	Measured Initial Conc. in Serum [9]	Conc. at t = 1 hr [9]	Conc. at t = 3 hr [9]	Measured Initial Conc. in Serum [10]	Conc. at t = 1 hr [10]	Conc. at t = 3 hr [10]	further results
CSc1ccc2c(c1C(=O)O)OB(O)[C@@H](Sc1nnc(N)s1)C2 [Compound 30, (R)-3-(5-amino-1,3,4-thiadiazol-2-ylthio)-2-hydroxy-7-(methylthio)-3,4-dihydro-2H-benzo[e][1,2]oxaborinine-8-carboxylic acid]	< 10 nM	< 10 nM	< 10 nM	< 10 nM	10 to 100 nM	10 to 100 nM	< 1000 nM	< 100 nM	< 100 nM	< 100 nM	< 10 nM	< 10 nM	10 to 100 nM	< 10 nM							Ki (OXA-48; [16]): < 10 nM; Ki (OXA-48; [17]): 10 to 100 nM; Ki (NDM-1 [2]; [18]): 10 to 100 nM; Ki (NDM-1 [2]; [20]): < 10 nM; Ki (NDM-1 [2]; [21]): 10 to 100 nM; Ki (P99/AmpC of ECL, NCF) [4]: X (Less than 0.1 μM); Ki (CTX-M-14, NCF) [6]: X (Less than 0.1 μM); Ki (KPC-2; [26]): < 10 nM; Ki (KPC-2; [27]): 10 to 100 nM
COc1ccc2c(c1C(=O)O)OB(O)[C@@H](Sc1nnc(N)s1)C2 [Compound 27, (R)-3-(5-amino-1,3,4-thiadiazol-2-ylthio)-2-hydroxy-7-methoxy-3,4-dihydro-2H-benzo[e][1,2]oxaborinine-8-carboxylic acid]	< 10 nM	< 10 nM	< 10 nM	< 10 nM	10 to 100 nM	10 to 100 nM	< 1000 nM	< 100 nM	< 100 nM	< 100 nM	< 10 nM	< 10 nM	10 to 100 nM	< 10 nM							Ki (OXA-48; [16]): < 10 nM; Ki (OXA-48; [17]): 10 to 100 nM; Ki (NDM-1 [2]; [18]): 10 to 100 nM; Ki (NDM-1 [2]; [20]): < 10 nM; Ki (NDM-1 [2]; [21]): 10 to 100 nM; Ki (P99/AmpC of ECL, NCF) [4]: Y (0.1 μM to 1 μM); Ki (CTX-M-14, NCF) [6]: X (Less than 0.1 μM); antibiotics MIC (meropenem, doripenem, ertapenem, cefepime) [8]: significantly reduced; Ki (KPC-2; [26]): < 10 nM; Ki (KPC-2; [27]): 10 to 100 nM
COc1ccc2c(c1C(=O)OCOC(C)=O)OB(O)[C@@H](Sc1nncs1)C2 [Compound 123, acetoxymethyl (3R)-2-hydroxy-7-methoxy-3-(1,3,4-thiadiazol-2-ylsulfanyl)-3,4-dihydro-1,2-benzoxaborinine-8-carboxylate]															51.7 µM	43.4 µM	30.7 µM	51.5 µM	26.1 µM	8.6 µM	conversion of prodrug to active metabolite ([10]; serum species not given, 4 hour experiment): completely converted to active metabolite
Nc1nnc(S[C@H]2Cc3ccc(F)c(C(=O)O)c3OB2O)s1 [Compound 23, (R)-3-(5-amino-1,3,4-thiadiazol-2-ylthio)-7-fluoro-2-hydroxy-3,4-dihydro-2H-benzo[e][1,2]oxaborinine-8-carboxylic acid]	< 10 nM	< 10 nM	< 10 nM	< 10 nM	10 to 100 nM	10 to 100 nM	≥ 1000 nM	< 100 nM	< 100 nM	< 100 nM	< 10 nM	< 10 nM	10 to 100 nM	< 10 nM							Ki (OXA-48; [16]): < 10 nM; Ki (KPC-2; [26]): < 10 nM
COc1ccc2c(c1C(=O)O)OB(O)[C@@H](Sc1nncs1)C2 [Compound 62, (3R)-2-hydroxy-7-methoxy-3-(1,3,4-thiadiazol-2-ylsulfanyl)-3,4-dihydro-1,2-benzoxaborinine-8-carboxylic acid]	< 10 nM	< 10 nM	< 10 nM	< 10 nM	> 100 nM	> 100 nM	< 1000 nM	< 100 nM	< 100 nM	< 100 nM	< 10 nM	< 10 nM	10 to 100 nM	< 10 nM							Ki (OXA-48; purified OXA-48, substrate biapenem, numeric value, read-out: Ki OXA-48, Biapenem): 5.6 nM; tebipenem MIC [11]: significantly reduced; Ki (NDM-1 [2]; [18]): 10 to 100 nM; Ki (P99/AmpC of ECL, NCF) [4]: Y (0.1 μM to 1 μM); Ki (CTX-M-14, NCF) [6]: X (Less than 0.1 μM); Ki (KPC-2; purified KPC-2, substrate biapenem, numeric value, read-out: Ki KPC-2, Biapenem): 3.9 nM
COc1ccc2c(c1C(=O)OCOC(=O)C(C)C)OB(O)[C@@H](Sc1nncs1)C2 [Compound 121, 2-methylpropanoyloxymethyl (3R)-2-hydroxy-7-methoxy-3-(1,3,4-thiadiazol-2-ylsulfanyl)-3,4-dihydro-1,2-benzoxaborinine-8-carboxylate]															51.4 µM	38.6 µM	24.8 µM	31.3 µM	40.7 µM	24.3 µM	
COc1ccc2c(c1C(=O)OCOC(=O)C(C)(C)C)OB(O)[C@@H](Sc1nncs1)C2 [Compound 125, 2,2-dimethylpropanoyloxymethyl (3R)-2-hydroxy-7-methoxy-3-(1,3,4-thiadiazol-2-ylsulfanyl)-3,4-dihydro-1,2-benzoxaborinine-8-carboxylate]															41.8 µM	27.4 µM	41.4 µM	37.6 µM	28.5 µM	48.2 µM	
COc1ccc2c(c1C(=O)OCOC(=O)OC(C)C)OB(O)[C@@H](Sc1nncs1)C2 [Compound 122, isopropoxycarbonyloxymethyl (3R)-2-hydroxy-7-methoxy-3-(1,3,4-thiadiazol-2-ylsulfanyl)-3,4-dihydro-1,2-benzoxaborinine-8-carboxylate]															44.3 µM	34.1 µM	47.1 µM	37.7 µM	26.6 µM	39.0 µM	
